Measurements: paper PMC4009402, “Evaluation of a biohybrid photoelectrochemical cell employing the purple bacterial reaction centre as a biosensor for herbicides” (Biosensors & Bioelectronics, 2014)
Several values for one entry are separate records, joined by “and”; a condition that tells them apart may be missing. Equal values may be shown once. Read-outs that look alike come from different tables or passages of the source.

Key:
[1] = target: T1, Rba. sphaeroides reaction centre (QB site) (Cereibacter sphaeroides, UniProt P0C0Y8); test: Kinetics of charge recombination in photo-oxidised reaction centres in solution (absorbance at 865 nm); assay type: biochemical, Rhodobacter sphaeroides; details: for effect on recombination rate (in words): 500 µM agent; for τ1 / τ2 / A1 / A2: 500 µM inhibitor; for τ1 / τ2: 13.2 µM reaction centres, 30 µM UQ0, ± standard error; for A1: amplitude of τ1 component; for A2: amplitude of τ2 component
T1 construct: made in house; host or cells: Rba. sphaeroides strain DD13 carrying plasmid pvLMt (written pvLMtX)
Method: Analysis of the effects of herbicides or inhibitors on the kinetics of charge recombination was performed using a Cary60 spectrophotometer connected to an external 1 cm cuvette holder (Ocean Optics) via a fibre-optic coupler. A white light pulse of 50 ms duration was applied to the sample cuvette at 90° to the pulsed measuring beam by an HL-2000-FHSA white light source with a fast shutter (Ocean Optics) delivering approximately 25 W m^−2 illumination at the cuvette surface. The actinic pulse was triggered by a TGP110 pulse generator (Thurlby Thandur Instruments). […] Test samples were loaded into to a 3×3 mm fluorescence cuvette (Hellma) aligned to the measuring and excitation pulses and absorbance at 865 nm was measured for 20 s after delivery of the light pulse, with a further period of at least 60 s to allow full dark adaptation of the reaction centres before re-excitation. A set of eight kinetic traces were recorded for each sample, averaged, and fitted using a single or double exponential function in Origin 8 (OriginLab).
To ensure this pattern of results was not specific to the conditions within the photoelectrochemical cell, the ability of these inhibitors to replace ubiquinone at the QB site was also tested by measuring the rate of recombination from QA and QB to the primary donor bacteriochlorophyll (P) after excitation with a pulse of white light (see Section 2). As outlined in Section 1, recombination of P^+QA^− or P^+QB^− occurs with lifetimes of ~100 ms and ~1 s, respectively. As the QB quinone is partially lost during purification of reaction centres, assays were conducted in the presence of 30 µM UQ0 to reconstitute QB, the reaction centre concentration being 13.2 µM.

[2] = target: QB site in the Rba. sphaeroides reaction centre; design: method as in Stein et al., 1984; details: 1 μM reaction centres, 10 mM Tris (pH 8.0), 100 mM NaCl, 0.06% TX-100, 20 μM UQ10; ref Stein et al., 1984; cited from earlier work
[3] = target: T1, Rba. sphaeroides reaction centre (QB site); test: Inhibition of photocurrent generation in photoelectrochemical cell with reaction centres adhered to a gold electrode; assay type: biochemical, Rhodobacter sphaeroides; details: for inhibition of the QB site / photocurrent (in words): present study, detergent-free buffer; for LOD (IC5): calculated from IC50 and Hill coefficient, 5% change in current
Method: To adhere reaction centres the cleaned gold electrode was immersed in 25 µL of a 1 mg mL^−1 (approximately 10 µM) solution of purified reaction centres in 20 mM Tris (pH 8.0)/0.1% LDAO for 1 h at 4 °C in dark. Unbound reaction centres were removed by dipping the electrode in ice-cold 20 mM Tris (pH 8.0) three times. The coated gold electrode was assembled into a glass-bottomed cell along with a Pt counter electrode (Radiometer Analytical), and an Ag/AgCl reference electrode (Radiometer Analytical). The cell was filled with 1 ml of 20 mM Tris (pH 8.0) containing 20 µM horse heart cyt c and 30 µM UQ0 (both from Sigma-Aldrich) and placed above a shutter-controlled 1.5 W 880 nm LED light source (Roithner LaserTechnik), resulting in an illumination intensity of 46 mW cm^−2 at the working electrode. A potential of −100 mV vs SCE was applied and photocurrents measured by chronoamperometry using the Autolab PGSTAT128N potentiostat (Metrohm) controlled by the PC running Autolab Nova 1.4 software (Metrohm).
The cell was incubated for 1 min before measurement of a 30 s photocurrent. All herbicides and inhibitors were purchased from Sigma-Aldrich, and their structures are shown in Supplementary Fig. 2.
For titrations, the photocurrent from a freshly prepared cell was measured for 30 s before and after the addition of increasing concentrations of atrazine, terbutryn or stigmatellin prepared in 20 mM Tris (pH 8.0)/20 µM cyt c/30 µM UQ0. After each addition the cell was equilibrated for 60 s before measuring the photocurrent, which was sufficient to allow stabilisation of the applied current required to maintain a potential of −100 mV vs SCE. Maximal photocurrents were plotted as a function of inhibitor concentration and fitted with a logistic function to determine the IC50 and IC5 (see text). These IC50 values were used to estimate Ki using the Cheng–Prusoff equation (see text).
To quantify the sensitivity of photocurrent generation to atrazine, terbutryn and stigmatellin the maximal photocurrent after a standard period of 30 s was recorded as a function of herbicide or inhibitor concentration. The titration data, expressed as the percentage of the maximum current in the absence of the herbicide/inhibitor, were fitted to a logistic function (Eq. (1)) to determine the IC50.(1) Y=Min+Max−Min/1+([Inhibitor]/IC50)^−HillCoefficient where Max and Min are maximal and minimal photocurrents, respectively. […] Based on this, the LOD can be represented by an IC5 value that can be calculated from the parameters of the IC50 fit (Eq. (2)).
To compare the sensitivity of our photochemical cell device to previous studies employing Rba. sphaeroides reaction centres, the IC50 values were converted to values for the binding affinity of the inhibitor (Ki) using the Cheng–Prusoff equation (Eq. (3)) ([Cheng and Prusoff, 1973])(3) Ki=IC50/1+([S]/Km) where [S] is the substrate concentration and Km is the measured Michaelis constant for UQ0 (see above).

PSII = details: cited from earlier work
spinach thylakoids = test system: spinach thylakoids; design: method as in Touloupakis et al., 2005; details: albumin glutaraldehyde matrix; ref Touloupakis et al., 2005; cited from earlier work
[4] = test system: Blc. viridis reaction centres (tyrosine to phenylalanine mutant near QB pocket); design: method as in Sinning et al., 1989; details: ref Sinning et al., 1989, cited from earlier work
reaction centre QB site = target: reaction centre QB site; design: method as in earlier work; details: ref McComb et al., 1990, Paddock et al., 1988, Gerencsér and Maróti, 2008, cited from earlier work
[5] = target: T2, Rba. sphaeroides reaction centre quinone reductase (QB) site (Cereibacter sphaeroides, UniProt P0C0Y8); test: Determination of the Km(apparent) for UQ0 from photocurrent density; assay type: biochemical, Rhodobacter sphaeroides; details: detergent-free buffer, Michaelis–Menten fit
T2 construct: made in house; host or cells: Rba. sphaeroides strain DD13 carrying plasmid pvLMt (written pvLMtX)
Method: Photovoltaic cells were assembled as described above but with the omission of UQ0. Photocurrents of 30 s duration were measured in the absence of UQ0 and after the addition of increasing amounts of UQ0. Maximal currents from three titrations were averaged, plotted as a function of UQ0 concentration then fitted with the Michaelis–Menten equation using Origin 8.0 (OriginLab).
To optimise the concentration of the substrate for the reaction centre quinone reductase (QB) site in the cell the Km^(apparent) for UQ0 was determined by measuring the maximum photocurrent density during a 30 s period of illumination as a function of increasing concentrations of UQ0. A concentration-dependent increase in the photocurrent amplitude was obtained, which was fitted with the Michaelis–Menten equation (Supplementary Fig. 3). […] This Km^(apparent) for UQ0 is, to our knowledge, the strongest reported to date. […] As the present assay was conducted in detergent-free buffer, the stronger Km^(apparent) obtained is consistent with this trend.

[6] = test system: Blc. viridis reaction centre; design: method as in Sinning et al., 1989; details: ref Sinning et al., 1989; cited from earlier work
[7] = PSII complexes in glutaraldehyde–BSA matrix on graphite electrode, ref Koblížek et al., 2002
[8] = PSII reaction centres or BBY particles on screen printed gold electrodes, ref Bhalla and Zazubovich, 2011
[9] = mutant vs normal reaction centre

Structure (SMILES) | effect on recombination rate (in words) [1] | τ1 [1] | τ2 [1] | A1 [1] | A2 [1] | Kd [2] | photocurrent remaining ([3]; 500 µM agent) | inhibition of the QB site / photocurrent (in words) [3] | IC50 [3] | Ki [3] | photocurrent remaining ([3]; 100 µM agent) | LOD (IC5) [3] | also measured
N#Cc1cc(Br)c(O)c(Br)c1 [bromoxynil] | unaffected | 0.038 ± 0.009 s | 1.14 ± 0.04 s | 36.1 ± 12.4% | 63.9 ± 2.2% | 30000 nM | greater than 80% | ineffective | – | – | – | – | –
COc1cc(CNC(=O)CCCC/C=C/C(C)C)ccc1O [capsaicin] | unaffected | 0.152 ± 0.011 s | 1.19 ± 0.03 s | 41.0 ± 3.8% | 59.0 ± 2.2% | – | greater than 80% | – | – | – | – | – | –
CCNc1nc(Cl)nc(NC(C)C)n1 [atrazine, N^2-ethyl-6-chloro-N^4-isopropyl-1,3,5-triazine-2,4-diamine] | accelerated significantly | 0.212 ± 0.004 s | – | 100% | – | 120000 nM | – | strong inhibition | 2100 ± 100 nM | 1200 nM | less than 10% | ~50 nM | IC50 (PSII; [7]): 90 nM; LOD (PSII; [7]): 2 nM; IC50 (PSII; PSII on screen printed Pt electrode in glutaraldehyde–BSA–glycerol matrix, ref Masojídek et al., 2011): 890 nM; IC50 (PSII; [8]): 49 nM; LOD (PSII; [8]): 1.15 nM; LOD (IC5) ([3]; listed as Atrazine): 49 nM; IC50 (spinach thylakoids): 100 nM; LOD (spinach thylakoids): 12.7 nM
CCNc1nc(NC(C)(C)C)nc(SC)n1 [terbutryn] | accelerated significantly | 0.152 ± 0.004 s | – | 100% | – | 3000 nM | – | strong inhibition | 208 ± 10 nM | 123 nM | less than 10% | 8.3 nM | decrease in sensitivity to inhibitor in mutant [4, 9]: 660 fold
COC1=C(OC)C(=O)C(C)=CC1=O [UQ0, ubiquinone-0] | – | – | – | – | – | – | – | – | – | – | – | – | Kd (reaction centre QB site; 0.0025% LDAO): 175000 nM and 90000 nM; Kd (reaction centre QB site; 0.06% LDAO): 480000 nM; Kd (reaction centre QB site; 0.1% LDAO): 600000 nM; Km [5]: 42 ± 2 µM
CN(C)C(=O)Nc1ccc(Cl)c(Cl)c1 [DCMU, 3-(3,4-dichlorophenyl)-1,1-dimethylurea] | unaffected | 0.179 ± 0.012 s | 1.18 ± 0.04 s | 51.7 ± 3.7% | 48.3 ± 3.7% | > 800000 nM | – | – | – | – | – | – | inhibitor grouping (in words) [6]: very weak inhibitors; increase in affinity in mutant ([4]; single tyrosine to phenylalanine change): at least four orders of magnitude
N#Cc1cc(I)c(O)c(I)c1 [ioxynil] | – | – | – | – | – | – | – | – | – | – | – | – | inhibitor grouping (in words) [6]: very weak inhibitors; increase in sensitivity to inhibitor in mutant [4, 9]: 100 fold
C/C=C(C)/C=C/C=C/[C@H](OC)[C@@H](C)[C@@H](OC)[C@@H](C)CCc1oc2c(O)c(OC)cc(OC)c2c(=O)c1C [stigmatellin] | accelerated significantly | 0.095 ± 0.003 s | – | 100% | – | – | – | strong inhibition | 280 ± 60 nM | 165 nM | less than 10% | 8.3 nM | LOD (IC5) ([3]; listed as Stigmatellin): 10 nM
CC(C)N1C(=O)c2ccccc2NS1(=O)=O [bentazon] | unaffected | 0.129 ± 0.015 s | 1.09 ± 0.03 s | 39.0 ± 5.8% | 61.0 ± 3.0% | – | greater than 80% | weak inhibition | – | – | – | – | –
